Source: ChEMBL document CHEMBL2396566, “Development of a novel class of pyrrolo-[1,2,5]benzothiadiazepine derivatives as potential anti-schistosomal agents” (2013)

Each compound was assayed on Schistosoma japonicum (assay: Antiparasitic activity against Schistosoma japonicum assessed as worm survival at 50 uM incubated for 16 hrs measured after 48 hrs).
Type: functional

Question: For `O=C1Nc2ccccc2Sn2cccc21`, which survival at 50 µM is on record?
Answer: 100%

Question: Which survival at 50 µM does the source give for `CN1c2ccccc2N=Cc2cccn21` here?
Answer: 100%

Question: With `CCOC(=O)C1Nc2ccccc2Sn2c(Br)ccc21` (configuration not stated) as the compound, how does the survival at 50 µM read?
Answer: 100%

Question: For `CCOC(=O)C1Nc2ccccc2S(=O)(=O)n2cccc21` (configuration not stated), which survival at 50 µM is on record?
Answer: 100%

Question: For `CCOC(=O)C1Nc2ccccc2Cn2cccc21` (configuration not stated), which survival at 50 µM is on record?
Answer: 100%

Question: With `O=C(C1CCCCC1)N1CC(=O)N2CCc3ccccc3C2C1` (configuration not stated) [PRAZIQUANTEL] as the compound, how does the survival at 50 µM read?
Answer: 33.3%

Question: For `CCOC(=O)C1Nc2ccccc2[S+]([O-])n2cccc21` (configuration not stated), which survival at 50 µM is on record?
Answer: 100%

Question: For `CCOC(=O)C1Nc2ccccc2Sn2cccc21` (configuration not stated), which survival at 50 µM is on record?
Answer: 66.7%

Question: With `O=C(O)C1Nc2ccccc2S(=O)(=O)n2cccc21` (configuration not stated) as the compound, how does the survival at 50 µM read?
Answer: 100%

Question: How did the survival at 50 µM turn out when `CCOC(=O)C1Nc2ccccc2Sn2c(Cl)ccc21` (configuration not stated) was run?
Answer: 83.3%

Question: How did the survival at 50 µM turn out when `CCOC(=O)C1Nc2ccccc2Nn2cccc21` (configuration not stated) was run?
Answer: 100%

Question: `CC1=Nc2ccccc2N(C)n2cccc21` was tested. Which survival at 50 µM did it give?
Answer: 100%

Question: `CCOC(=O)C1Nc2ccccc2N(C)n2cccc21` (configuration not stated) was tested. Which survival at 50 µM did it give?
Answer: 100%

What follows are compounds tested on Schistosoma japonicum (assay: Antiparasitic activity against Schistosoma japonicum assessed as worm survival at 50 uM incubated for 16 hrs measured after 72 hrs).
Type: functional

Question: Which survival at 50 µM does the source give for `O=C1Nc2ccccc2Sn2cccc21` here?
Answer: 100%

Question: `CN1c2ccccc2N=Cc2cccn21` was tested. Which survival at 50 µM did it give?
Answer: 83.3%

Question: `CCOC(=O)C1Nc2ccccc2Sn2c(Br)ccc21` (configuration not stated) was tested. Which survival at 50 µM did it give?
Answer: 66.7%

Question: `CCOC(=O)C1Nc2ccccc2S(=O)(=O)n2cccc21` (configuration not stated) was tested. Which survival at 50 µM did it give?
Answer: 100%

Question: For `CCOC(=O)C1Nc2ccccc2Cn2cccc21` (configuration not stated), which survival at 50 µM is on record?
Answer: 83.3%

Question: With `O=C(C1CCCCC1)N1CC(=O)N2CCc3ccccc3C2C1` (configuration not stated) [PRAZIQUANTEL] as the compound, how does the survival at 50 µM read?
Answer: 33.3%

Question: With `CCOC(=O)C1Nc2ccccc2[S+]([O-])n2cccc21` (configuration not stated) as the compound, how does the survival at 50 µM read?
Answer: 100%

Question: With `CCOC(=O)C1Nc2ccccc2Sn2cccc21` (configuration not stated) as the compound, how does the survival at 50 µM read?
Answer: 16.7%

Question: Which survival at 50 µM does the source give for `O=C(O)C1Nc2ccccc2S(=O)(=O)n2cccc21` (configuration not stated) here?
Answer: 100%

Question: For `CCOC(=O)C1Nc2ccccc2Sn2c(Cl)ccc21` (configuration not stated), which survival at 50 µM is on record?
Answer: 33.3%

Question: For `CCOC(=O)C1Nc2ccccc2Nn2cccc21` (configuration not stated), which survival at 50 µM is on record?
Answer: 100%

Question: For `CC1=Nc2ccccc2N(C)n2cccc21`, which survival at 50 µM is on record?
Answer: 83.3%

Question: With `CCOC(=O)C1Nc2ccccc2N(C)n2cccc21` (configuration not stated) as the compound, how does the survival at 50 µM read?
Answer: 83.3%

These compounds were tested on Schistosoma japonicum (assay: Antiparasitic activity against Schistosoma japonicum adult worm infected in ICR mouse assessed as worm reduction at 200 mg/kg, po administered for 3 days measured after 21 days).
Type: functional
Set-up: scale not given: the % may be the effect or the level left

Question: `CN1c2ccccc2N=Cc2cccn21` was tested. Which Activity did it give?
Answer: 6.1%

Question: For `CCOC(=O)C1Nc2ccccc2Sn2c(Br)ccc21` (configuration not stated), which Activity is on record?
Answer: 12%

Question: Which Activity does the source give for `CCOC(=O)C1Nc2ccccc2Cn2cccc21` (configuration not stated) here?
Answer: 74.2%

Question: For `O=C(C1CCCCC1)N1CC(=O)N2CCc3ccccc3C2C1` (configuration not stated) [PRAZIQUANTEL], which Activity is on record?
Answer: 96.9%

Question: How did the Activity turn out when `CCOC(=O)C1Nc2ccccc2Sn2cccc21` (configuration not stated) was run?
Answer: 4.5%

Question: Which Activity does the source give for `CCOC(=O)C1Nc2ccccc2Sn2c(Cl)ccc21` (configuration not stated) here?
Answer: 51.5%

Question: `CC1=Nc2ccccc2N(C)n2cccc21` was tested. Which Activity did it give?
Answer: 24.2%

Question: `CCOC(=O)C1Nc2ccccc2N(C)n2cccc21` (configuration not stated) was tested. Which Activity did it give?
Answer: 34.8%

What follows are compounds tested on Schistosoma japonicum (assay: Antiparasitic activity against Schistosoma japonicum assessed as worm survival at 50 uM incubated for 16 hrs measured after 24 hrs).
Type: functional

Question: Which survival at 50 µM does the source give for `O=C1Nc2ccccc2Sn2cccc21` here?
Answer: 100%

Question: How did the survival at 50 µM turn out when `CN1c2ccccc2N=Cc2cccn21` was run?
Answer: 100%

Question: For `CCOC(=O)C1Nc2ccccc2Sn2c(Br)ccc21` (configuration not stated), which survival at 50 µM is on record?
Answer: 100%

Question: How did the survival at 50 µM turn out when `CCOC(=O)C1Nc2ccccc2S(=O)(=O)n2cccc21` (configuration not stated) was run?
Answer: 100%

Question: With `CCOC(=O)C1Nc2ccccc2Cn2cccc21` (configuration not stated) as the compound, how does the survival at 50 µM read?
Answer: 100%

Question: For `O=C(C1CCCCC1)N1CC(=O)N2CCc3ccccc3C2C1` (configuration not stated) [PRAZIQUANTEL], which survival at 50 µM is on record?
Answer: 66.7%

Question: With `CCOC(=O)C1Nc2ccccc2[S+]([O-])n2cccc21` (configuration not stated) as the compound, how does the survival at 50 µM read?
Answer: 100%

Question: For `CCOC(=O)C1Nc2ccccc2Sn2cccc21` (configuration not stated), which survival at 50 µM is on record?
Answer: 100%

Question: With `O=C(O)C1Nc2ccccc2S(=O)(=O)n2cccc21` (configuration not stated) as the compound, how does the survival at 50 µM read?
Answer: 100%

Question: How did the survival at 50 µM turn out when `CCOC(=O)C1Nc2ccccc2Sn2c(Cl)ccc21` (configuration not stated) was run?
Answer: 100%

Question: For `CCOC(=O)C1Nc2ccccc2Nn2cccc21` (configuration not stated), which survival at 50 µM is on record?
Answer: 100%

Question: `CC1=Nc2ccccc2N(C)n2cccc21` was tested. Which survival at 50 µM did it give?
Answer: 100%

Question: With `CCOC(=O)C1Nc2ccccc2N(C)n2cccc21` (configuration not stated) as the compound, how does the survival at 50 µM read?
Answer: 100%
